From paper PMC12196235, “Enhancing the Pharmacological Properties of Triterpenes Through Acetylation: An Anticancer and Antioxidant Perspective” (Molecules, 2025)
Where two headings read alike, the source gives them in different places.

How the values were obtained:
[1] = tested on: J774A.1 (macrophage-like cell line); settings: ref 106; cited from earlier work
[2] = tested on: B16-F10 (murine melanoma); settings: cited from earlier work
CUPRAC antioxidant assay = settings: calculated from Trolox standard curve
Protocol: (§1) The results are presented as % inhibition of the copper(II) ions and Trolox equivalent calculated from the standard curve (Figure 9) and as % inhibition of the DPPH radical and Trolox equivalent, calculated from the standard curve (Figure 10).
(§2) The CUPRAC reagent (7.5 mM ethanolic 96% neocuproine solution, 10 mM CuCl2 × H2O solution and an ammonium acetate buffer of pH 7.0) and DPPH reagent (2,2-diphenyl-1-picrylhydrazyl 0.2 mM solution) were applied.
(§3) The CUPRAC method measures the reducing power of a sample by quantifying its ability to convert the Cu-neocuproine reagent complex to the Cu(I) form. In contrast, the DPPH assay relies on the ability of an antioxidant to donate a hydrogen atom or an electron to the stable DPPH radical, resulting in its reduction and subsequent color change. The results are presented as % inhibition of the copper(II) ions and Trolox equivalent calculated from the standard curve (Figure 9) and as % inhibition of the DPPH radical and Trolox equivalent, calculated from the standard curve (Figure 10). The spectroscopic detection in CUPRAC and DPPH assays was conducted with Synergy H1 Multi-Mode Microplate Reader (BioTek Instruments, Inc., Winooski, VT, USA). The details of the experiments are given in [102].

Staphylococcus aureus = settings: ref 16; cited from earlier work
Escherichia coli = settings: ref 16; cited from earlier work
[3] = tested on: KB-VIN (multidrug resistant human epidermoid carcinoma); settings: ref 104; cited from earlier work
[4] = tested on: Hep-G2 (human hepatocellular carcinoma); settings: cited from earlier work
[5] = tested on: KB (human oral squamous carcinoma); settings: ref 104; cited from earlier work
[6] = tested on: A-549 (human lung carcinoma); settings: ref 104; read-out: IC50 (A-549); cited from earlier work
[7] = tested on: HeLa, KB, MCF-7, A-549, PC-3 and SKOV-3; assay: MTT assay, summary over the cancer cell lines; format: cell-based, human; settings: classification by IC50 (good ≤ 10 μM, moderate 10–30 μM, ref 83)
Protocol: All the cell lines and mediums were obtained from the American Type Culture Collection (ATCC) supplied by LGC-Standards (Lomianki, Poland). Human cancer cell lines were cultured as follows: HeLa (human cervix carcinoma) and KB (human oral squamous carcinoma) lines were cultured in DMEM (Dulbecco’s Modified Eagle’s Medium); MCF-7 (human breast carcinoma) and A-549 (human lung carcinoma) were cultured in RPMI 1640 medium; PC-3 (human prostate carcinoma) was cultured in F-12K medium; SKOV-3 (human ovarian cystadenocarcinoma) was cultured in McCoy’s modified medium; HDF (human normal dermal fibroblasts) was cultured in Fibroblast Basal Medium. Each medium was supplemented with 10% fetal bovine serum, 1% L- glutamine and 1% penicillin/streptomycin solution. The cell lines were kept in an incubator at 37 °C.
All the tested cell lines (HeLa, KB, MCF-7, A-549, PC-3, SKOV-3 and HDF) were subjected to MTT assay. In short, this assay is based on the reaction between mitochondria enzymes (dehydrogenases) of tested cell lines and 3-(4,5-dimethylthiazol-2-yl)-2,5-diphenyltetrazolium bromide (MTT). The final product of this reaction gives violet formazan crystals. The number of live cells is proportional to the amount of formazan and is represented by the violet dye reagent. The details of the experiments are given in [19].

[8] = tested on: HSV-1/Blue (Herpes simplex virus type 1 ACV-resistant strain); settings: ref 15; read-out: antiviral EC50 (HSV-1/Blue); cited from earlier work
[9] = tested on: HDF (human dermal fibroblasts); settings: MTT assay, normal dermal fibroblasts; data published earlier; read-out: IC50 (±SD), HDF; cited from earlier work
Salmonella typhi = settings: ref 16; cited from earlier work
[10] = tested on: SKOV-3 (human ovarian carcinoma); settings: MTT assay, data published earlier, read-out: IC50 (±SD), SKOV-3; cited from earlier work
[11] = tested on: HCT-116 (human colorectal carcinoma); settings: ref 20; cited from earlier work
DPPH antioxidant assay = settings: calculated from Trolox standard curve
Protocol: as §1, §2, §3

[12] = tested on: HSV-1/106 (Herpes simplex virus type 1 ACV-resistant strain); settings: ref 15; read-out: antiviral EC50 (HSV-1/106); cited from earlier work
[13] = tested on: HSV-1/153 (Herpes simplex virus type 1 ACV-resistant strain); settings: ref 15; read-out: antiviral EC50 (HSV-1/153); cited from earlier work
[14] = tested on: HT-29 (human colorectal adenocarcinoma); settings: ref 105; read-out: IC50 (HT-29); cited from earlier work
RAW 264.7 = settings: ref 106; cited from earlier work

For CC1(C)CC[C@]2(C(=O)O)CC[C@]3(C)C(=CC[C@@H]4[C@@]5(C)CC[C@H](O)C(C)(C)[C@@H]5CC[C@]43C)[C@@H]2C1 [1a, oleanolic acid], the IC50 [1] is listed as 35.2 µM, the IC50 ([2]; ref 105) is listed as 106 µM and the IC50 ([2]; ref 107) is listed as 106 µM. For the same molecule, the “Trolox Equivalent, CUPRAC Assay” value (CUPRAC antioxidant assay) was 0.1031 ± 0.00684 mg/mL, the “antibacterial MBC (Staphylococcus aureus)” value (Staphylococcus aureus) was 700 µg/mL and the “antibacterial MIC (S. aureus)” value (Staphylococcus aureus) was 95 µg/mL. For the same molecule, the “antibacterial MBC (Escherichia coli)” value (Escherichia coli) was 900 µg/mL, the “antibacterial MIC (E. coli)” value (Escherichia coli) was 95 µg/mL and the IC50 [3] was over 10 µM. For the same molecule, the IC50 ([4]; ref 18, 19, read-out: anticancer IC50 (Hep-G2)) was 16.2 µM, the IC50 ([4]; ref 105, read-out: IC50 (Hep-G2)) was 212 µM and the IC50 [5] was over 10 µM. The IC50 [6] was 6.4 µM, the “cytotoxic activity class” value [7] was “high or moderately high activity” and the EC50 [8] was 13.1 µM. For the same molecule, the IC50 [9] was 24.9 µM, the “antibacterial MBC (Salmonella typhi)” value (Salmonella typhi) was 300 µg/mL and the “antibacterial MIC (S. typhi)” value (Salmonella typhi) was 65 µg/mL. For the same molecule, the IC50 [10] was 18.8 µM, the “anticancer IC50 (HCT-116)” value [11] was “anticancer: IC50 = 40 µg × mL^−1 (HCT-116)” and the “Trolox Equivalent, DPPH Assay” value (DPPH antioxidant assay) was 0.02633 ± 0.00109 mg/mL. For the same molecule, the EC50 [12] was 12.9 µM, the EC50 [13] was 13.1 µM and the IC50 [14] was 430 µM. The IC50 (RAW 264.7) was 41.7 µM.
